Tests used:
[1] = target: CRALBP (Homo sapiens, UniProt P12271); assay: analysis of retinoids bound to CRALBP isolated from the reaction mixture; assay type: binding
[2] = target: T1, isomerase (Bos taurus, UniProt Q28175); assay: isomerase reaction: 11-cis-retinol production by RPE microsomes from all-trans-retinol; assay type: biochemical, bovine; conditions: for IC50 / inhibition of isomerization (in words): RPE microsomes; for IC50: all-trans-retinol substrate, read-out: IC50, inhibition of 11-cis-retinol production; for inhibition of isomerization (in words): in vitro; for lowering of potency by saturation of the C13-14 double bond: relative to the 11-cis- and all-trans-isomers of Ret-NH2
T1 construct: Purified RPE microsomes were the source of the enzymes; from tissue; host or cells: bovine retinal pigment epithelium microsomes
T1 sequence (Q28175 2-533 limits assumed): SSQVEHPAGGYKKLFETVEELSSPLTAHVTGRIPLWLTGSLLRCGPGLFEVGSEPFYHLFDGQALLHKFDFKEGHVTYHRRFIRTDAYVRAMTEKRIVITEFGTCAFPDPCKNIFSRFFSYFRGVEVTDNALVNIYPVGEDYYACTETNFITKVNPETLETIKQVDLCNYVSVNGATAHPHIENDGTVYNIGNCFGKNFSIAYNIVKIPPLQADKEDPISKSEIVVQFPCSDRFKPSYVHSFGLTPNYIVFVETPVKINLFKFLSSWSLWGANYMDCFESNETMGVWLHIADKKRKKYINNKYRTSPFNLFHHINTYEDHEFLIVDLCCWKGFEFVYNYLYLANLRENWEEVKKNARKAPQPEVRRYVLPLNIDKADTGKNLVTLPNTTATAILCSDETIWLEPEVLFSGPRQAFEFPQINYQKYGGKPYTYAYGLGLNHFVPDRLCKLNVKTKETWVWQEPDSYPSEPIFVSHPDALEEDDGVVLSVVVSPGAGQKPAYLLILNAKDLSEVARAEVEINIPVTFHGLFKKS
Method: (§1) To test if 11-cis-retinylamine (11-cis Ret-NH2) affects isomerization and esterification, an in vitro assay was employed. In this assay both of the all-trans-retinyl esters formed in the reaction catalyzed by LRAT and 11-cis-retinol production by isomerase were measured (6). Purified RPE microsomes were the source of the enzymes, and all-trans-retinol was the substrate. […] Inhibition of isomerization by Ret-NH2 is not due to binding of CRALBP or competition with 11-cis-retinol for binding to CRALBP. […] An increased concentration of all-trans-retinol lowered the level of inhibition, as illustrated in FIG. 2B. […] Dixon's and Lineweaver-Burk plots in the standard assay conditions yielded Ki=0.1 μM for Ret-NH2 when all-trans-retinol (KM=0.3 μM) was assumed to be a substrate. […] This estimated value reflects the very potent nature of the inhibition by 11-cis-Ret-NH2.
Materials—Fresh bovine eyes were obtained from a local slaughterhouse (Schenk Packing Co., Inc., Stanwood, Wash.). Preparation of bovine RPE microsomes was performed according to previously described methods (Stecher et al., J Biol Chem 274:8577-85, 1999). All chemicals were purchased from Sigma-Aldrich (St. Louis, Mo.). 11-cis-Retinal was obtained from Dr. Rosalie Crouch (Charleston, S.C.).
Reaction conditions for isomerase and LRAT reaction—The isomerase reaction was performed essentially as described previously (Stecher et al., J Biol Chem 274:8577-85, 1999). The reaction was carried out in 10 mM BTP buffer, pH 7.5, 1% BSA, containing 1 mM ATP and 6 μM apo-CRALBP. To investigate inhibition properties of Ret-NH2 and its derivatives, RPE microsomes were preincubated for 5 min in 37° C. with the indicated compound in 10 mM BTP buffer, pH 7.5, 1% BSA, 1 mM ATP prior to addition of apo-CRALBP and all-trans-retinol. Ret-NH2 and its derivatives were delivered to the reaction mixture in 1 μl of DMF, and the same volume of DMF was added to the control reaction. Each experiment was performed three times in duplicate. The average values were used and the standard deviations were calculated.

[3] = target: T2, LRAT (Bos taurus, UniProt Q9BGL2); assay: LRAT reaction: formation of all-trans-retinyl esters by RPE microsomes; assay type: biochemical, bovine; conditions: all-trans-retinol substrate
T2 construct: Purified RPE microsomes were the source of the enzymes; from tissue; host or cells: bovine retinal pigment epithelium microsomes
T2 sequence (Q9BGL2 1-230): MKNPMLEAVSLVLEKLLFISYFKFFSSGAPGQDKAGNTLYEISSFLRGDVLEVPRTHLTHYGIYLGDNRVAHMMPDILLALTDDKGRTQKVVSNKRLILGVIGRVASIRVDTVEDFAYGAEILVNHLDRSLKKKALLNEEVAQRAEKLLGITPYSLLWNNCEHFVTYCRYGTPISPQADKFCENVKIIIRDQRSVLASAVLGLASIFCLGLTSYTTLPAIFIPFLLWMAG
Method: as §1
Materials—Fresh bovine eyes were obtained from a local slaughterhouse (Schenk Packing Co., Inc., Stanwood, Wash.). Preparation of bovine RPE microsomes was performed according to previously described methods (Stecher et al., J Biol Chem 274:8577-85, 1999). […]
Reaction conditions for isomerase and LRAT reaction—The isomerase reaction was performed essentially as described previously (Stecher et al., J Biol Chem 274:8577-85, 1999). […] The average values were used and the standard deviations were calculated.

[4] = test system: regeneration of vision chromophore (11-cis-retinal); assay: regeneration of 11-cis-retinal in mouse eyes after gavage and light bleach, HPLC retinoid analysis; assay type: in vivo; conditions: gavage in vegetable oil, 16 hours dark, light stimulated, 5 hours dark
Method: Mice were gavaged with all-trains-Ret-NH2, exposed to intense light for 20 min, and then allowed to recover in the dark for 5 hours. The total amount of different forms of retinoids in all experiments was unchanged. […] For this experiment mice were treated with both 9-cis-retinol and all-trans-Ret-NH2, and bleached after 24 hours, and were allowed to recover for 5 hours in the dark. The presence of 9-cis-retinal was confirmed in treated animals (see peaks 4 and 4′ in FIG. 4A bottom panel, corresponding to syn- and anti-9-cis-retinal oximes, respectively). 11-cis-Retinal was not reduced and/or esterified after treatment with Ret-NH2. […] This supports the idea that Ret-NH2 is a specific inhibitor of the isomerization reaction.
A. Chromatographic separation of nonpolar retinoids from WT mouse eyes. Mice were gavaged with all-trans-Ret-NH2 24 hours prior to bleaching for 20 min at 150 cd·m^−2 W in the Ganzfeld chamber. Regeneration of 11-cis-retinal was allowed for 24 hours in the dark, and retinoids were extracted from the eye and separated by normal phase HPLC as described in Materials and Methods. The peaks were identified based on elution time and absorption spectra correspond to the following retinoids: 1, all-trans-retinyl esters; 2,2′, syn- and anti-11-cis-retinal oximes; 3, syn-all-trans-retinal oxime; 4,4′, syn- and anti-9-cis-retinal oximes; 5, all-trans-retinol. B. Changes of 11-cis-retinal oxime levels at increasing doses of all-trans-Ret-NH2 during 5 hours or 24 hours of dark adaptation. Square indicates the level of 11-cis-retinal oximes that was present in mice gavaged with vegetable oil without retinoids just after bleaching, and arrow indicates the increase of visual chromophore during 5 hours of dark adaptation. Triangles correspond to the level of 11-cis-retinal found in the mice gavaged with 50 mg/kg of 13-cis-RA. C and D. Single flash ERG responses of increasing intensity for all-trans-Ret-NH2 treated mice and control mice. Serial responses to increasing flash stimuli were obtained for all-trans-Ret-NH2 treated and control mice for selected intensities (C) and plotted as a function of a-wave and b-wave versus varying light intensities under dark-adapted conditions (D) before bleach and at 5 hours and 24 hours after bleach. The dark-adapted mice were bleached with intense constant illumination (150 cd·m^−2) for 20 min. […] SE bars are shown.
Chromatographic separation of nonpolar retinoids from WT mouse eyes. Mice were gavaged with 100 mg/kg of all-trans-Ret-NH2 24 hours prior to bleaching. Mice were next exposed to 500 cd m^−2 for 48 min bleaching in the Ganzfeld chamber. Regeneration of 11-cis-retinal was allowed for 24 hours in the dark, and retinoids were extracted from the eye and separated by normal phase HPLC as described in Materials and Methods. The peaks identified based on elution time and absorption spectra correspond to the following retinoids: 1, all-trans-retinyl esters; 2,2′, syn- and anti-1-cis-retinal oximes; 3,3′ syn- and anti-all-trans-retinal oximes; 4, all-trans-retinol.
Mice were gavaged with the solution of inhibitor in vegetable oil (control—non-treated, RPN—retinylpalmitamide, RAN—retinylacetamide, Ret—NH2-all-trans-retinylamine), kept in dark for 16 hours, then light stimulated and kept in dark for additional 5 hours before their eyes were analyzed.
Mouse retinoid extraction and analysis—Retinoid analysis was performed under dim red light as described previously (Maeda et al., J. Neurochem 85:944-956, 2003; Van Hooser et al., J Biol Chem 277:19173-82, 2002). Mice were gavaged with retinoids as described previously (Van Hooser et al., J Biol Chem 277:19173-82, 2002).

[5] = test system: RPE protein(s); assay: gel filtration chromatography of DHPC-solubilized RPE microsome proteins with retinoid; assay type: binding, bovine; conditions: for gel filtration elution position (fractions): Superdex 200, native RPE extract, proteins elute in fractions 18-60
Method: The specificity of Ret-NH2 was further tested by biochemical assays. […] When the RPE microsomes were solubilized with DHPC, the isomerase activity decreased only slightly. Then [^3H]-Ret-NH2 was added to the RPE extract and loaded on a gel filtration column. Proteins were fractionated and eluted between fractions 18 and 60 (FIG. 3A), while the radioactivity was eluted in fractions 36-38. RPE65 was identified by immunoblotting in fractions 23-34 (FIG. 3B). The most abundant proteins in this fraction were identified by mass spectrometry and include glucose phosphate isomerase, D-glyceraldehyde-3-phosphate dehydrogenase, phosphoglycerate mutase, triose phosphate isomerase, enolase, annexin V, calbindin 2, and LRAT. Identification of less abundant proteins is in progress.
RPE microsomes were solubilized with 10 mM DHPC, incubated with 11,12-di[^3H]-all-trans-Ret-NH2 (1 μM), and loaded on a Superdex 200 column equilibrated with Tris/HCl buffer, pH 7.5, containing 4 mM DHPC. Proteins were eluted with a constant flow rate of 0.4 ml/min. The protein and radioactivity levels of 0.4 ml fractions were examined by SDS-PAGE and scintillation counting (A), and immunoblot with anti-RPE65 and anti-LRAT antibodies (B). The star indicates the fraction associated with maximum radioactivity.

Chain of CRALBP (P12271 whole entry, species assumed): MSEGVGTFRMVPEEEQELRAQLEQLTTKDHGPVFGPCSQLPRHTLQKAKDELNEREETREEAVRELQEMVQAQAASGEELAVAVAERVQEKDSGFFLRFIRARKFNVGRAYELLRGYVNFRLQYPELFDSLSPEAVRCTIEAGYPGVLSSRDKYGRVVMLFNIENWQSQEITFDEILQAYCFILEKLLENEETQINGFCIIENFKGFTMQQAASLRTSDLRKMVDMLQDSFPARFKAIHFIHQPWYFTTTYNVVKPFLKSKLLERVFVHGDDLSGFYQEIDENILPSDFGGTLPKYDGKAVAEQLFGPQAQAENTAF

For `CC(C=CC1=C(C)CCCC1(C)C)=CC=CC(C)=CCN` (single isomer, unassigned) [11-cis-Ret-NH2, 11-cis-retinylamine], which “binding to CRALBP” value [1] is on record?
The value was “did not reveal any significant levels”.

And the IC50 [2]?
The IC50 was 70 nM.

And the “inhibition of isomerization (in words)” value [2]?
The value was “most potent inhibitor”.

And the “formation of all-trans-retinyl esters (LRAT activity)” value [3]?
Its value is “not affected”.

Which results are given for `CC(=O)NC/C=C(C)/C=C/C=C(C)/C=C/C1=C(C)CCCC1(C)C` [N-retinylacetamide]?
inhibition of regeneration of vision chromophore in mice by retinylamides [4]: potent inhibitors of regeneration in mice; inhibition of regeneration of vision chromophore in mice by retinylamides ([4]; listed as RAN): same as free retinylamine; inhibition of isomerization (in words) [2]: weakly inhibit the isomerization reaction; gel filtration elution position (fractions) [5]: eluted either in the void volume or with low molecular weight compounds

`CC(C=CC1=C(C)CCCC1(C)C)=CC=CC(C)=CCN` (single isomer, unassigned) [9-cis-Ret-NH2, 9-cis-retinylamine] was tested. Which IC50 [2] did it give?
The IC50 was 640 nM.

Which “lowering of potency by saturation of the C13-14 double bond” value [2] does the source give for `CC1=C(/C=C/C(C)=C/C=CC(C)CCN)C(C)(C)CCC1` (centres unmarked) [VII] here?
Its value is “about 10 fold”.

How did the “inhibition of isomerization (in words)” value [2] turn out when `CC1=C(/C=C/C(C)=C/C=C/C(C)=C/CS)C(C)(C)CCC1` [all-trans-thioretinol, reference compound] was run?
Its value is “neither all-trans-thioretinol nor all-trans-13,14-dihydroretinol influenced the isomerization”.

For `CC(C=CC1=C(C)CCCC1(C)C)=CC=CC(C)CCN` (centres unmarked) [VIII], which “lowering of potency by saturation of the C13-14 double bond” value [2] is on record?
Its value is “about 10 fold”.

Which IC50 [2] does the source give for `CC(C=CC1=C(C)CCCC1(C)C)=CC=CC(C)=CCN` (single isomer, unassigned) [13-cis-Ret-NH2, 13-cis-retinylamine] here?
Its IC50 is 730 nM.

`[3H]C(C=C(C)C=CC1=C(C)CCCC1(C)C)=C([3H])C(C)=CCN` [[^3H]-Ret-NH2, 11,12-di[^3H]-all-trans-Ret-NH2] was tested. Which “gel filtration elution position (fractions), heat-denaturated proteins” value ([5]; control with heat-denaturated proteins) did it give?
The value was 48-60.

`CCCCCCCCCCCCCCCC(=O)NC/C=C(C)/C=C/C=C(C)/C=C/C1=C(C)CCCC1(C)C` [N-Retinylpalmitamide] was tested. Which “inhibition of regeneration of vision chromophore in mice by retinylamides” value [4] did it give?
Its value is “potent inhibitors of regeneration in mice”.

What about the “inhibition of regeneration of vision chromophore in mice by retinylamides” value ([4]; listed as RPN) of the same molecule?
The value was “same as free retinylamine”.

What about the “inhibition of isomerization (in words)” value [2] of the same molecule?
Its value is “did not inhibit isomerization”.

What about the “inhibition of isomerization (in words)” value ([2]; listed as N-palmitoylretinamide) of the same molecule?
Its value is “non-inhibitory”.

How did the “inhibition of isomerization (in words)” value [2] turn out when `CC1=C(/C=C/C(C)=C/C=C/C(C)CCO)C(C)(C)CCC1` (stereo not drawn) [all-trans-13,14-dihydroretinol, reference compound] was run?
The value was “neither all-trans-thioretinol nor all-trans-13,14-dihydroretinol influenced the isomerization”.

What does the source list for `CC1=C(/C=C/C(C)=C/C=C/C(C)=C/CO)C(C)(C)CCC1` [all-trans-retinol, reference compound]?
Km ([2]; all-trans-retinol assumed to be a substrate): 0.3 µM; inhibition of isomerization (in words) [2]: weakly inhibit the isomerization reaction; gel filtration elution position (fractions) [5]: eluted either in the void volume or with low molecular weight compounds

How did the “inhibition of isomerization (in words)” value [2] turn out when `CC1=C(/C=C/C(C)=C/C=C/C(C)=C/CNO)C(C)(C)CCC1` [N-hydroxyretinylamine] was run?
Its value is “higher IC50”.
